In patent US5925529A, “Method for discovery of peptide agonists” (The Regents of the University of California, priority 1995, dated 1999):
Entries after “also recorded” stand apart in the source; their conditions may differ.

Columns and labels:
[1] = biological target: T1, wild type human thrombin receptor (Homo sapiens, UniProt P25116); assay: Agonist-induced 45Ca release from Xenopus oocytes expressing the wild type thrombin receptor; assay type: cell-based; settings: Xenopus oocytes expressing epitope tagged wild type human thrombin receptor; compared with SFLLR peptide (FIG. 5A)
T1 construct: expressed in transfected cells; host or cells: Xenopus laevis oocytes (cRNA)
T1 sequence (P25116 22-425): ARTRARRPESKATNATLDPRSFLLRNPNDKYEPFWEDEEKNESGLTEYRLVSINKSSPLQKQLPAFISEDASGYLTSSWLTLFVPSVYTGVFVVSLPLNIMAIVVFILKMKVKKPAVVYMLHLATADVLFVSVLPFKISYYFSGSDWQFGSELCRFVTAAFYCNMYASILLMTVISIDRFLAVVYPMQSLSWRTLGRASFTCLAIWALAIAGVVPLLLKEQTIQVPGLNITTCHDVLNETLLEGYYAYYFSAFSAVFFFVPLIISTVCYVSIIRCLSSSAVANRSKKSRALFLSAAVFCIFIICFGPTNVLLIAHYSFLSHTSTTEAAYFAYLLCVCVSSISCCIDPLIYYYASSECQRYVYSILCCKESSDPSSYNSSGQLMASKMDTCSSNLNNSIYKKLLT
Experimental: (§1) Xenopus oocytes were harvested from female Xenopus laevis and processed using published techniques. Coleman, A., In Transcription and Translation: A Practical Approach, Oxford: IRL Press, pp. 271-302 (1984); Williams et al., PNAS 85: 4939-4943 (1988). To remove follicular cells, oocytes were incubated for 4 hr at room temperature with 1 mg/ml Sigma type II collagenase in modified Barth's solution (MBSH) without Ca^2+, then washed and incubated overnight at 18° C. in MBSH II (MBSH containing 1 mg/ml bovine serum albumin, 1 ml/ml Ficoll, 100 U/ml penicillin, 100 μg/ml streptomycin, and 50 μg/ml gentamicin). Dumont stage V oocytes were selected and microinjected with 5 to 50 nl of mRNA (1 μg/μl in 10 mM HEPES, pH 7.0). Microinjected oocytes were cultured for 24 hr at 18° C. in MBSH then selected for functional assays.
(§2) Agonist-induced increases in ^45 Ca^2+ release were assessed by published techniques. Williams et al., PNAS 85:4939-4943 (1988). […] The harvested medium was analyzed by scintillation counting to determine ^45 Ca^2+ release by the oocytes during each 10 min incubation. […] At this point, two additional 10 min collections were obtained, then medium including agonist was added and agonist-induced ^45 Ca^2+ release determined. […]

Human fMLF receptor = biological target: T2, Human fMLF receptor (Homo sapiens, UniProt P21462); assay: Agonist-induced 45Ca release from Xenopus oocytes expressing the formyl peptide receptor; assay type: cell-based; settings: Xenopus oocytes injected with human fMLF receptor cRNA; compared with fMLF (FIG. 2)
T2 construct: expressed in transfected cells; host or cells: Xenopus laevis oocytes microinjected with cRNA
T2 sequence (P21462 1-350): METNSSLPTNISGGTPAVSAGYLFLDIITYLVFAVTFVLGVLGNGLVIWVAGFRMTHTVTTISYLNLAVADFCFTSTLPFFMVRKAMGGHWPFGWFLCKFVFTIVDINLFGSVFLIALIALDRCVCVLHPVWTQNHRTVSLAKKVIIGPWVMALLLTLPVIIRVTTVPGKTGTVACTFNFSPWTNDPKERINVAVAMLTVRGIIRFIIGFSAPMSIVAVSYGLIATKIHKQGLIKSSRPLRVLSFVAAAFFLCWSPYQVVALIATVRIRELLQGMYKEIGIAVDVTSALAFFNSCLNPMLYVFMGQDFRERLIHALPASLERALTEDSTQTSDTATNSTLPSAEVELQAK
Experimental: as §1, with “Dumont stage V oocytes were selected and microinjected with 5 to 50 nl of mRNA (1 μg/μl in 10 mM HEPES, pH 7.0). Microinjected oocytes were cultured for 24 hr at 18° C. in MBSH then selected for functional assays.” left out
Agonist-induced increases in ^45 Ca^2+ release were assessed by published techniques. […] The harvested medium was analyzed by scintillation counting to determine ^45 Ca^2+ release by the oocytes during each 10 min incubation. […] At this point, two additional 10 min collections were obtained, then medium including agonist was added and agonist-induced ^45 Ca^2+ release determined.
Formyl peptide receptor response to its classical agonist fMLF (SEQ ID NO:12) and to the new agonist derived from tethered ligand library. […] Xenopus oocytes were microinjected with 5 ng cRNA transcribed from this construct, cultured for 24 hours, and ^45 Ca release in response to the indicated concentration of peptides was measured as described above.

uninjected oocytes = assay: 45Ca release in uninjected Xenopus oocytes (control for receptor dependence); assay type: cell-based, Xenopus laevis
Experimental: as §1, §2

formyl peptide receptor = settings: compared with f-MLF; cited from earlier work

| Substance | agonist activity / signaling (45Ca release) at the thrombin receptor [1] | agonist activity / signaling (45Ca release) at the formyl peptide receptor (Human fMLF receptor) | signaling (45Ca release) in uninjected oocytes (uninjected oocytes) | activity of the unformylated peptide relative to f-MLF (fold less activity) (formyl peptide receptor) |
| --- | --- | --- | --- | --- |
| GFIYF | nearly as effective as the SFLLR; also recorded: receptor-dependent | did not cause signaling | did not cause signaling | – |
| MLF | – | – | – | at least 1000 fold |
